From patent US20250099428A1, “USE OF BENZISOSELENAZOLE COMPOUND IN PREPERATION OF DRUG FOR TREATMENT OF SPINAGLIOMA” (Beijing Neurosurgical Institute, priority 2022, published 2025)
Entries after “also recorded” stand apart in the source; their conditions may differ.

What was measured:
Spinaglioma cells SP0001 = test: CCK8 cell proliferation inhibition, spinaglioma cells SP0001; format: cell-based, human; settings: for growth inhibition / killing effect on SP0001 cells: CCK8, cytarabine 24, 48, 96 hours, BS 24, 48 hours
Experimental: (§1) Spinaglioma cells SP0001 in a logarithmic growth phase were digested with trypsin and centrifuged to obtain a cell precipitate, and cells were counted after being re-suspended in a complete medium. Based on the count results, the cells SP0001 were inoculated into a 96-well cell culture plate with 5000 cells per well and cultured in a 37° C. incubator in a 5% CO2 environment. After 24 hours, the cells were treated with drugs. Atemozolomide (TMZ) compound and a benzisoselenazole compound (BS) of the present invention were respectively dissolved in DMSO to prepare a stock solution, which was then dissolved with the complete medium to different drug concentrations. The gradient concentrations of TMZ were 0, 100, 150, 200, 250, 300, 350, and 400 μM. The gradient concentrations of BS were 0, 1, 2, 3, 4, 5, 6, 7, and 8 μM. The medium was removed from the wells, and the corresponding drug solution of each concentration was added with 100 μL per well.
[…] When testing, a CCK8 working solution was prepared in advance, namely, an appropriate volume of working solution was prepared based on 100 μL serum-free medium and 10 μL CCK8 per well, and the working solution was placed in dark. The well plate was taken out of the incubator, the cell medium was removed from the wells to be tested, 110 μL of CCK8 working solution was added to each well, the incubation was continued for 2 hours, then the absorbance at 450 nm was measured on an enzyme-linked immunosorbent assay (ELISA) reader, an inhibition rate corresponding to each concentration was calculated, and IC50 values at corresponding time were calculated using GraphPad 7.0 software.
This example measured the killing effects of a cytarabine compound and the BS compound of the present invention on two types of spinaglioma cell lines SCA-S01 and SP0001, using the same method as Example 1.

[1] = system: primary spinaglioma cell line SP0001; test: Live and dead cell fluorescence staining of SP0001 cells; format: cell-based, human; settings: 6 μM, treated 48 hours
Experimental: Fluorescence staining was performed using live and dead cell staining technology on the primary spinaglioma cell line SP0001 treated with the benzisoselenazole compound for 48 hours.

[2] = system: SP0001 human-derived spinaglioma tumor; test: SP0001 tumor-bearing NPG mouse model, tumor growth inhibition; format: in vivo, NPG immunodeficient mice; settings: for tumor volume inhibition rate: end of experiment; for tumor size at end of experiment: intragastric once a day, 24 days
Experimental: (§2) First, a tumor-bearing mouse model was built. Female NPG immunodeficient mice (6-8 weeks, starting weight 16-21 g, purchased from Beijing Vitalstar Biotechnology Co., Ltd.) were used for experimental research. The animals were raised and operated under sterile conditions, and all animal experiments were conducted in accordance with the international guidelines for animal experimentation. SP0001 human-derived spinaglioma tumor blocks (2-3 mm^3) were prepared and inoculated subcutaneously to the right ventrodorsal side of each NPG mouse. After inoculation, the status of the mice was observed, and the size of the tumor was measured. The animals with a tumor volume of 40 mm^3 were selected for experiment, and the animals that had too large tumor and no tumor were not selected. A total of 40 suitable tumor-bearing animals were selected for the experiment and divided into 5 experimental groups, with 8 mice in each group. The first day of administration was recorded as D1, the second day of administration was recorded as D2, and so on. All the animals were administered intragastrically once a day for 24 consecutive days. […] In the experiment, the physiological saline group was used as a negative control, and the temozolomide (TMZ) treatment group was used as a positive control.

[3] = Body weight and toxicity in tumor-bearing NPG mice; format: in vivo, NPG immunodeficient mice; settings: for toxic and side effects on NPG mice: intragastric once a day, 24 days, BS: BSM and BSH groups, TMZ 30 mg/Kg
Experimental: as §2
During the experiment, no clinical abnormal symptoms or animal deaths due to drug toxicity were observed.
The histogram of the weight change rate of NPG mice after administration was shown in FIG. 9 (BSL, BSM, and BSH represent a low dose group 90 mg/Kg, a medium dose group 180 mg/Kg, and a high dose group 360 mg/Kg of the drug BS respectively).

SCA-S01 cells = test: CCK8 cell proliferation inhibition, spinaglioma cells SCA-S01; format: cell-based, human; settings: cytarabine 24, 48, 96 hours, BS 24, 48 hours
Experimental: as §1, with “The medium was removed from the wells, and the corresponding drug solution of each concentration was added with 100 μL per well.” left out
The well plate was put back into the incubator, and cell proliferation was tested after 24 and 48 hours, respectively. […] The well plate was taken out of the incubator, the cell medium was removed from the wells to be tested, 110 μL of CCK8 working solution was added to each well, the incubation was continued for 2 hours, then the absorbance at 450 nm was measured on an enzyme-linked immunosorbent assay (ELISA) reader, an inhibition rate corresponding to each concentration was calculated, and IC50 values at corresponding time were calculated using GraphPad 7.0 software. […]

[4] = SP0001 cells, CCK8, 24 and 48 hours

Compound | growth inhibition / killing effect on SP0001 cells (Spinaglioma cells SP0001) | inhibitory effect on proliferation of patient-derived spinaglioma cell line (Spinaglioma cells SP0001; [4]) | sensitivity of patient-derived spinaglioma to the compound (Spinaglioma cells SP0001; [4]) | killing effect [1] | tumor volume inhibition rate ([2]; BS high dose 360 mg/Kg) | tumor volume inhibition rate ([2]; BS low dose 90 mg/Kg) | tumor volume inhibition rate ([2]; BS medium dose 180 mg/Kg) | tumor size at end of experiment ([2]; BSH high dose 360 mg/Kg) | tumor size at end of experiment ([2]; BSL low dose 90 mg/Kg) | tumor size at end of experiment ([2]; BSM medium dose 180 mg/Kg) | weight change during administration ([3]; BSM and BSH groups (180 and 360 mg/Kg)) | toxic and side effects on NPG mice [3] | killing effect on SCA-S01 cells (SCA-S01 cells) | tumor volume inhibition rate ([2]; TMZ group 30 mg/Kg) | tumor size at end of experiment ([2]; TMZ group 30 mg/Kg) | weight loss compared to the Control group (decrease) ([3]; TMZ group 30 mg/Kg)
O=c1c2ccccc2[se]n1CCCCn1[se]c2ccccc2c1=O [BS] | significant killing effect | obvious inhibitory effect | sensitive | 90% | 45.99% | 14.01% | 25.89% | 82.56±41.40 mm^3 | 131.44±39.81 mm^3 | 113.29±57.21 mm^3 | did not show any weight loss; also recorded: no significant change in body weight | no significant toxic and side effects | strong killing effects | – | – | –
Cn1nnc2c(C(N)=O)ncn2c1=O [TMZ, temozolomide, reference compound] | – | – | – | – | – | – | – | – | – | – | – | significant toxic and side effects; also recorded: obvious toxicity | – | 82.59% | 26.61±10.30 mm^3 | over 20%
Nc1ccn([C@@H]2O[C@H](CO)[C@@H](O)[C@@H]2O)c(=O)n1 [cytarabine, reference compound] | cannot significantly inhibit the growth | – | – | – | – | – | – | – | – | – | – | – | weak killing effect | – | – | –
